Results published in patent US12286442B2, “Methods and materials for increasing transcription factor eb polypeptide levels” (University of Pittsburgh—Of the Commonwealth System of …, priority 2019, dated 2025).

These compounds were tested on b-hexosaminidase (a lysosomal enzyme) (assay: Secreted b-hexosaminidase activity normalized with cellular b-hexosaminidase activity in Beas2B cells). Details: indicated concentration, 18 hours.
Type: cell-based, human
Procedure: (§1) FIGS. 5A-B. Compound 133 and Compound 115 increased lysosomal protein expression and secretion. A. Beas2B cells were treated with Cmpd. 133 at 10 μM for 24 hours. Cells then were collected and assayed for lysosomal protein gene expression. B. Beas2B cells were treated with Cmpd. 115 at the indicated concentration for 18 hours. Secreted b-hexosaminidase activity (a lysosomal enzyme) then was measured and normalized with cellular b-hexosaminidase activity.

Row | Structure (SMILES) | secretion of the lysosomal enzyme beta hexosaminidase
1 | c1ccc2c(Nc3ccc4[nH]ncc4c3)nc(-c3ccncc3)nc2c1 [Compound 160] | increase
2 | COc1cccc2c(Nc3ccc4[nH]ccc4c3)nc(-c3ccncc3)nc12 [Compound 115] | increased

Each compound was assayed on TFEB (assay: High content screen measuring TFEB nuclear accumulation (TFEB nuclear/cytosol ratio) in BEAS-2B cells stably expressing TFEB-EGFP). Details: 18 hours incubation.
Type: cell-based, human
Method in brief: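 Readout: lowest compound concentration giving a 25% rise in nuclear/cytosol TFEB-GFP ratio, from DAPI-masked nuclear and mask-expanded cytosolic signals. Cells (BEAS-2B, TFEB-EGFP stable, ~2300–2500/well) rested 8 hours, then treated 18 hours with compound serial dilutions in 2% FBS medium before PFA fixation and DAPI staining.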

Row | Structure (SMILES) | efficacy (minimal compound concentration needed to increase TFEB nuclear/cytosol ratio by 25%)
3 | c1cnc2nc(-c3ccncc3)nc(Nc3ccc4c(c3)OCO4)c2c1 [Compound 133] | +++ (“+++” equals ≤1 μM)
4 | c1ccc2c(Nc3ccc4[nH]ncc4c3)nc(-c3ccncc3)nc2c1 [Compound 160] | +++ (“+++” equals ≤1 μM)
5 | COc1cccc2c(Nc3ccc4[nH]ccc4c3)nc(-c3ccncc3)nc12 [Compound 115] | + (“+” equals >25 μM)
6 | c1ccc2c(Nc3ccc4[nH]ccc4c3)nc(-c3ccncc3)nc2c1 [Compound 15] | +++ (“+++” equals ≤1 μM)
7 | c1ccc2c(Nc3ccc4ccncc4c3)nc(-c3ccncc3)nc2c1 [Compound 13] | + (“+” equals >25 μM)
8 | c1ccc2c(Nc3ccc4ncncc4c3)nc(-c3ccncc3)nc2c1 [Compound 102] | +++ (“+++” equals ≤1 μM)
9 | c1cc(-c2nc(Nc3ccc4ncsc4c3)c3cnccc3n2)ccn1 [Compound 122] | + (“+” equals >25 μM)
10 | c1ccc2c(NC3CC3)nc(-c3ccncc3)nc2c1 [Compound 165] | + (“+” equals >25 μM)
11 | c1cnc2nc(-c3cncs3)nc(Nc3ccc4[nH]ccc4c3)c2c1 [Compound 386] | +++ (“+++” equals ≤1 μM)
12 | c1cc(-c2cc3cnccc3c(Nc3ccc4[nH]ccc4c3)n2)ccn1 [Compound 397] | ++ (“++” equals between ≤25 μM and >1 μM)
13 | CCC(C)NC(=O)Cn1c(=O)n(-c2ccc(OC)cc2)c(=O)c2ccc(C(=O)NCc3ccc(C)cc3)cc21 (centres unmarked) [Compound 216] | + (“+” equals >25 μM)
14 | CCc1nc2ccc(Nc3nc(-c4ccncc4)nc4cccc(OC)c34)cc2s1 [Compound 361] | ++ (“++” equals between ≤25 μM and >1 μM)
15 | COc1cccc2c(Nc3ccc4nc(C(C)C)sc4c3)nc(-c3ccncc3)nc12 [Compound 153] | ++ (“++” equals between ≤25 μM and >1 μM)
16 | Cc1cccc2c(Nc3ccc4cnsc4c3)nc(-c3ccncc3)nc12 [Compound 380] | ++ (“++” equals between ≤25 μM and >1 μM)
17 | c1ccc2c(Nc3ccc4nc(C5CC5)sc4c3)nc(-c3ccncc3)nc2c1 [Compound 91] | +++ (“+++” equals ≤1 μM)
18 | COc1cccc2nc(-c3ccncc3)nc(Nc3ccc4[nH]ccc4c3)c12 [Compound 109] | +++ (“+++” equals ≤1 μM)
19 | Cc1ccc2nc(-c3ccncc3)nc(Nc3ccc4[nH]ccc4c3)c2c1 [Compound 116] | +++ (“+++” equals ≤1 μM)
20 | NC(=O)c1cccc(Nc2nc(-c3ccncc3)nc3ccccc23)c1 [Compound 3] | +++ (“+++” equals ≤1 μM)
21 | Cc1nc2cc(Nc3nc(-c4ccncc4)nc4ccccc34)ccc2[nH]1 [Compound 29] | ++ (“++” equals between ≤25 μM and >1 μM)
22 | c1cc(-c2nc(Nc3ccc4nc(C5CC5)sc4c3)c3cnccc3n2)ccn1 [Compound 121] | + (“+” equals >25 μM)
23 | Cc1ccc(-c2nc(Nc3ccccc3F)c3ccccc3n2)cc1 [Compound 201] | + (“+” equals >25 μM)
24 | c1ccc2c(Nc3ccc4c(c3)CCN4)nc(-c3ccncc3)nc2c1 [Compound 35] | +++ (“+++” equals ≤1 μM)

These compounds were tested on lysosomal protein gene expression (assay: Lysosomal protein gene expression in Beas2B cells). Details: 10 μM for 24 hours.
Type: cell-based, human
Procedure: as §1

Row | Structure (SMILES) | lysosomal protein expression
25 | c1cnc2nc(-c3ccncc3)nc(Nc3ccc4c(c3)OCO4)c2c1 [Compound 133] | increased
26 | c1ccc2c(Nc3ccc4[nH]ncc4c3)nc(-c3ccncc3)nc2c1 [Compound 160] | increase

The compounds below were run on BEAS-2B cells (assay: Toxicity: compound concentration needed to induce greater than 50 percent of cell loss). Details: 18 hours incubation.
Type: cell-based, human
Method in brief: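 Reported value is the concentration giving greater than 50 percent cell loss, grouped into bins (≥25 μM; between 1 and 25 μM; ≤1 μM as "+++"). Measured by high-content imaging of DAPI-stained BEAS-2B TFEB-EGFP cells fixed after 18 h compound exposure.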

Row | Structure (SMILES) | toxicity (compound concentration needed to induce greater than 50 percent of cell loss)
27 | c1cnc2nc(-c3ccncc3)nc(Nc3ccc4c(c3)OCO4)c2c1 [Compound 133] | + (cell loss of greater than 50 percent at a concentration that equals or is greater than 25 μM was represented as)
28 | c1ccc2c(Nc3ccc4[nH]ncc4c3)nc(-c3ccncc3)nc2c1 [Compound 160] | ++ (cell loss of greater than 50 percent at a concentration less than 25 μM and greater than 1 μM was represented as)
29 | COc1cccc2c(Nc3ccc4[nH]ccc4c3)nc(-c3ccncc3)nc12 [Compound 115] | + (cell loss of greater than 50 percent at a concentration that equals or is greater than 25 μM was represented as)
30 | c1ccc2c(Nc3ccc4[nH]ccc4c3)nc(-c3ccncc3)nc2c1 [Compound 15] | + (cell loss of greater than 50 percent at a concentration that equals or is greater than 25 μM was represented as)
31 | c1ccc2c(Nc3ccc4ccncc4c3)nc(-c3ccncc3)nc2c1 [Compound 13] | + (cell loss of greater than 50 percent at a concentration that equals or is greater than 25 μM was represented as)
32 | c1ccc2c(Nc3ccc4ncncc4c3)nc(-c3ccncc3)nc2c1 [Compound 102] | + (cell loss of greater than 50 percent at a concentration that equals or is greater than 25 μM was represented as)
33 | c1cc(-c2nc(Nc3ccc4ncsc4c3)c3cnccc3n2)ccn1 [Compound 122] | + (cell loss of greater than 50 percent at a concentration that equals or is greater than 25 μM was represented as)
34 | c1ccc2c(NC3CC3)nc(-c3ccncc3)nc2c1 [Compound 165] | + (cell loss of greater than 50 percent at a concentration that equals or is greater than 25 μM was represented as)
35 | c1cnc2nc(-c3cncs3)nc(Nc3ccc4[nH]ccc4c3)c2c1 [Compound 386] | + (cell loss of greater than 50 percent at a concentration that equals or is greater than 25 μM was represented as)
36 | c1cc(-c2cc3cnccc3c(Nc3ccc4[nH]ccc4c3)n2)ccn1 [Compound 397] | + (cell loss of greater than 50 percent at a concentration that equals or is greater than 25 μM was represented as)
37 | CCC(C)NC(=O)Cn1c(=O)n(-c2ccc(OC)cc2)c(=O)c2ccc(C(=O)NCc3ccc(C)cc3)cc21 (centres unmarked) [Compound 216] | + (cell loss of greater than 50 percent at a concentration that equals or is greater than 25 μM was represented as)
38 | CCc1nc2ccc(Nc3nc(-c4ccncc4)nc4cccc(OC)c34)cc2s1 [Compound 361] | + (cell loss of greater than 50 percent at a concentration that equals or is greater than 25 μM was represented as)
39 | COc1cccc2c(Nc3ccc4nc(C(C)C)sc4c3)nc(-c3ccncc3)nc12 [Compound 153] | + (cell loss of greater than 50 percent at a concentration that equals or is greater than 25 μM was represented as)
40 | Cc1cccc2c(Nc3ccc4cnsc4c3)nc(-c3ccncc3)nc12 [Compound 380] | + (cell loss of greater than 50 percent at a concentration that equals or is greater than 25 μM was represented as)
41 | c1ccc2c(Nc3ccc4nc(C5CC5)sc4c3)nc(-c3ccncc3)nc2c1 [Compound 91] | + (cell loss of greater than 50 percent at a concentration that equals or is greater than 25 μM was represented as)
42 | COc1cccc2nc(-c3ccncc3)nc(Nc3ccc4[nH]ccc4c3)c12 [Compound 109] | + (cell loss of greater than 50 percent at a concentration that equals or is greater than 25 μM was represented as)
43 | Cc1ccc2nc(-c3ccncc3)nc(Nc3ccc4[nH]ccc4c3)c2c1 [Compound 116] | + (cell loss of greater than 50 percent at a concentration that equals or is greater than 25 μM was represented as)
44 | NC(=O)c1cccc(Nc2nc(-c3ccncc3)nc3ccccc23)c1 [Compound 3] | + (cell loss of greater than 50 percent at a concentration that equals or is greater than 25 μM was represented as)
45 | Cc1nc2cc(Nc3nc(-c4ccncc4)nc4ccccc34)ccc2[nH]1 [Compound 29] | + (cell loss of greater than 50 percent at a concentration that equals or is greater than 25 μM was represented as)
46 | c1cc(-c2nc(Nc3ccc4nc(C5CC5)sc4c3)c3cnccc3n2)ccn1 [Compound 121] | + (cell loss of greater than 50 percent at a concentration that equals or is greater than 25 μM was represented as)
47 | Cc1ccc(-c2nc(Nc3ccccc3F)c3ccccc3n2)cc1 [Compound 201] | + (cell loss of greater than 50 percent at a concentration that equals or is greater than 25 μM was represented as)
48 | c1ccc2c(Nc3ccc4c(c3)CCN4)nc(-c3ccncc3)nc2c1 [Compound 35] | ++ (cell loss of greater than 50 percent at a concentration less than 25 μM and greater than 1 μM was represented as)

Each compound was assayed on liver lysosomes (assay: Liver lysosomal activity in mice (dextran blue confocal microscopy, Lamp2 immunostaining)). Details: female C57BL6 mice, i.p. for 4 days, 50 mg/kg/d or 30 mg/kg/day, liver 24 hours after i.v. dextran blue.
Type: in vivo
Procedure: FIG. 7. Compound 15 increases liver lysosomal activity. Female C57BL6 mice were intraperitoneally (i.p.) injected with Cmpd. 15 (50 mg/kg/d) for 4 days. Mice were then intravenously (i.v.) injected with dextran blue. 24 hours later, mice were sacrificed, and livers were removed and imaged through confocal microscopy. White fluorescent signal indicates dextran blue within lysosome and provides a measure of lysosomal number and activity within the hepatic tissue (Upper panels). […] Scale bar: 50 microns.
Female C57BL6 mice were i.p. injected with Compound 15 (30 mg/kg/day) for 4 days. Mice were then i.v. injected with dextran blue. 24 hours later, mice were sacrificed, and liver samples were removed and imaged through confocal microscopy.

Row | Structure (SMILES) | liver lysosomal dextran blue signal (lysosomal number and activity)
49 | c1ccc2c(Nc3ccc4[nH]ccc4c3)nc(-c3ccncc3)nc2c1 [Compound 15] | increases
50 | c1ccc2c(Nc3ccc4ccncc4c3)nc(-c3ccncc3)nc2c1 [Compound 13] | drastically increased

Same assay, conditions: female C57BL6 mice, i.p. for 4 days, 50 mg/kg/d or 30 mg/kg/day, liver slides

Row | Structure (SMILES) | liver Lamp2 staining
51 | c1ccc2c(Nc3ccc4[nH]ccc4c3)nc(-c3ccncc3)nc2c1 [Compound 15] | enhanced signals
52 | c1ccc2c(Nc3ccc4ccncc4c3)nc(-c3ccncc3)nc2c1 [Compound 13] | drastically increased

The compounds below were run on Beas2B cells (assay: Lysosome quantity in Beas2B cells (light microscope, lysotracker Red confocal microscopy)). Details: 18 hours, 1 μM or indicated concentrations.
Type: cell-based, human
Procedure: FIGS. 4A-B. Compound 178 (BC1834) and Compound 160 (BC18200) increased lysosome quantity. A. Beas2B cells were treated with Cmpd. 178, Cmpd. 160, or the GSK3b inhibitor TWS119 (1 μM for 18 hours). Cells were then imaged through light microscope. B. Beas2B cells were treated with Cmpd. 178 for 18 hours at the indicated concentrations. Cells were then stained with lysotracker Red (100 nM) for 30 minutes. Cells then were washed and imaged through confocal microscopy.

Row | Structure (SMILES) | lysosome quantity
53 | c1ccc2c(Nc3ccc4[nH]ncc4c3)nc(-c3ccncc3)nc2c1 [Compound 160] | increase
